Test system: PP2A regulated protein kinases
Assay: Phosphorylated PP2A regulated protein kinases by Western blots in rat brain slices
Type: cell-based
Conditions: BMAA-treated rat brain slices (1 mM, 2 h)
Procedure: Male Wistar rats (Charles River Laboratories), 2-3 months old, were anesthetized by i.p. injection with 50 mg/kg Nembutal. The animals were decapitated when deeply anesthetized. The brains were removed immediately and cooled in ice-cold (4° C.) oxygenated artificial cerebrospinal fluid (aCSF) consisting of 126 mM NaCl, 3.5 mM KCl, 1.2 mM NaH2PO4, 1.3 mM MgCl2, 2 mM CaCl2, 11 mM D(+) glucose, and 25 mM NaHCO3 (pH 7.4) for 7-8 min. Each brain then was divided sagittally, and 400-μm-thick coronal slices were made with a Camden Vibraslicer (WP, Inc.). The slices were transferred into a chamber containing the oxygenated aCSF and were incubated at 33° C. for 2 h in the presence or absence of 1 mM, β-N ? methylamino-L-alanine (BMAA) dissolved in 10 mM NaHCO3 (Sigma). The oxygenation of the aCSF was carried out by bubbling the solution with a mixture of 95% O2 and 5% CO2 during the entire procedure. At the end of incubation, the brain slices were homogenized with homogenizing buffer [50 mM Tris·HCl (pH 7.4), 8.5% (wt/vol) sucrose, 2 mM EDTA, 2 mM EGTA, 10 mM (3-mercaptoethanol, 5 mM benzamidine, 0.5 mM 4-(2-Aminoethyl) benzenesulfonyl fluoride hydrochloride (AEBSF), 4 μg/mL pepstatin A, and 10 μg/mL each of aprotinin and leupepin] at a ratio of 9.0 mL buffer/1.0 g tissue slices. The homogenates were divided into two parts. One part was centrifuged at 16,000×g for 10 min, and the resulting supernatant was used to assay protein phosphatase 2A (PP2A) activity. Into the other half, an equal volume of phosphatase-inhibitor mixture (20 mM 3-glycerophosphate, 2 mM Na3VO4, and 100 mM NaF) was added immediately, and the samples were used for Western blots.
Protein was fractionated by 10% SDS/PAGE, transferred to PVDF membrane, and then blocked with 5% skim milk for 1 h at room temperature. The membrane was probed with anti-IPP2A (5G6, 1:1, 500) (7), anti-I2P2A (10E7, 1:1, 600) (7), anti-tau ˜92e; 1:5,000) (8), anti-tau (R134d; 1:5 000) (9), anti-tau pSer^262/^356 (12E8; 1:500) (10, anti-tau pSer^199, anti-tau pThr^205, anti-tau pThr^212, and pSer^396 (1:1,000) (Biosource), anti-GAPDH (1:2,000) (Santa Cruz Biotechnology), anti-PP2Ac (1:10 000) (BD Transduction Lab), anti pY^307-PP2A and anti-DML^309-PP2A (1:1,000) (Millipore), anti-GSK-3(α/β), anti-pS^9-GSK-3 β, anti-ERK1/2, anti-pT^202/Y^204-ERK1/2, anti-MEK1/2, anti-p9^17/221-MEK1/2, anti-CAMKII, anti-pT^286-CAMKII, anti-p70 S6 kinase, anti-pT^389-p70 S6 kinase, anti-SAPK/JNK, and anti-pT^183/Y^185-SAPK/JNK (1:1,000) (Cell Signaling Technology). The membrane then was incubated with HRP-conjugated secondary antibody (Jackson ImmunoResearch). The protein bands were detected with the enhanced chemiluminescence reagents (Thermo Scientific). Band intensity was measured by Multi-Gauge V3 software (Fuji Photo Film).

CNC[C@H](N)C(=O)O [BMAA, β-N-methylamino-L-alanine]
increased noticeably: level of phosphorylated/activated CaMKII | level of phosphorylated/activated ERK1/2 | level of phosphorylated/activated MEK1/2
no significant changes: level of phosphorylated GSK-3β | level of phosphorylated JNK | level of phosphorylated p70 S6 kinase

Source: US10335400B2, “Treatment of tauopathies with mGluR5 antagonists” (priority 2014, dated 2019)
